Test results as given in ChEMBL document CHEMBL1138412, “Chalcone based aryloxypropanolamines as potential antihyperglycemic agents” (2007).

Legend:
[1] = species: Rattus norvegicus; assay: Antihyperglycemic activity in streptozotocin induced diabetic model of Sprague-Dawley albino rat assessed as reduction in blood glucose by AUC method; format: functional; parameters: scale not given: the % may be the effect or the level left
[2] = species: Rattus norvegicus; assay: Antihyperglycemic activity in sucrose loaded model of Sprague-Dawley albino rat assessed as reduction in blood glucose by AUC method; format: functional; parameters: scale not given: the % may be the effect or the level left

| SMILES | Activity [1] [%] | Activity [2] [%] |
| --- | --- | --- |
| CC(C)N(CC(O)COc1cccc(/C=C/C(=O)c2ccccc2)c1)C(C)C (stereo unspecified) | 22.6 | 26.7 |
| CC(C)(C)NCC(O)COc1cccc(/C=C/C(=O)c2ccccc2)c1 (stereo unspecified) | 10.6 | 21.7 |
| COc1ccc(Cl)cc1C(=O)NCCc1ccc(S(=O)(=O)NC(=O)NC2CCCCC2)cc1 [GLYBURIDE] | 29 | 33.7 |
| CC(C)N(CC(O)COc1ccc(/C=C/C(=O)c2ccccc2)cc1)C(C)C (stereo unspecified) |  | 7.9 |
| O=C(/C=C/c1ccc(OCC(O)CN2CCCCC2)cc1)c1ccccc1 (stereo unspecified) | 19.3 | 22.3 |
| O=C(/C=C/c1cccc(OCC(O)CN2CCN(c3ccccc3Cl)CC2)c1)c1ccccc1 (stereo unspecified) | 8.3 | 19 |
| CC(C)CNCC(O)COc1cccc(/C=C/C(=O)c2ccccc2)c1 (stereo unspecified) |  | 14.5 |
| CC(C)(C)NCC(O)COc1ccc(/C=C/C(=O)c2ccccc2)cc1 (stereo unspecified) | 10.3 | 29 |
| O=C(/C=C/c1ccc(OCC(O)CN2CCN(c3ccccc3)CC2)cc1)c1ccccc1 (stereo unspecified) | 3 | 31.1 |
| CN(C)C(=N)NC(=N)N [METFORMIN] |  | 12.9 |
| O=C(/C=C/c1cccc(OCC(O)CN2CCCCC2)c1)c1ccccc1 (stereo unspecified) | 9.4 | 11.3 |
| CCN(CC)CCCNCC(O)COc1cccc(/C=C/C(=O)c2ccccc2)c1 (stereo unspecified) | 8.3 | 20.8 |
| CC(C)CNCC(O)COc1ccc(/C=C/C(=O)c2ccccc2)cc1 (stereo unspecified) |  | 6.5 |
| O=C(/C=C/c1cccc(OCC(O)CN2CCN(c3ccccc3)CC2)c1)c1ccccc1 (stereo unspecified) | 10.4 | 22.9 |
| CN1CCN(CC(O)COc2cccc(/C=C/C(=O)c3ccccc3)c2)CC1 (stereo unspecified) | 20.1 | 20.4 |
